Measurements as given in ChEMBL document CHEMBL3244027, “Syntheses, analgetic activity, and physical dependence capacity of 5-phenyl-6,7-benzomorphan derivatives” (J Med Chem, 1979).
Calls of active or inactive are those of the source. The rule behind the calls is not given here.

What was measured:
Mus musculus [1] = experiment: Analgetic activity against CF-1 mouse assessed as increase in reaction time at 60 mg/kg, po by heat stimulus induced tail flick response assay; format: functional, organism-based; parameters: dose 60 mg/kg
Mus musculus [2] = experiment: Analgetic activity against CF-1 mouse assessed as increase in reaction time at 100 mg/kg, sc by heat stimulus induced tail flick response assay; format: functional, organism-based; parameters: dose 100 mg/kg
Mus musculus [3] = experiment: Analgetic activity in po dosed CF1S mouse assessed as writhing by phenylquinone writhing test; format: functional; conditions: Mus musculus, CF1S, po; read-out: ED50
Mus musculus [4] = experiment: Analgetic activity in sc dosed CF1S mouse assessed as writhing by phenylquinone writhing test; format: functional; conditions: Mus musculus, CF1S, sc; read-out: ED50
Mus musculus [5] = experiment: Toxicity in sc dosed CF1S mouse; format: organism-based; conditions: in vivo
Mus musculus [6] = experiment: Analgetic activity against CF-1 mouse assessed as increase in reaction time at 140 mg/kg, sc by heat stimulus induced tail flick response assay; format: functional, organism-based; parameters: dose 140 mg/kg
Mus musculus [7] = experiment: Analgetic activity against CF-1 mouse assessed as increase in reaction time at 10 mg/kg, po by heat stimulus induced tail flick response assay; format: functional, organism-based; parameters: dose 10 mg/kg
Mus musculus [8] = experiment: Analgetic activity against CF-1 mouse assessed as increase in reaction time at 20 mg/kg, po by heat stimulus induced tail flick response assay; format: functional, organism-based; parameters: dose 20 mg/kg
Mus musculus [9] = experiment: Analgetic activity against CF-1 mouse assessed as increase in reaction time at 2.5 mg/kg, sc by heat stimulus induced tail flick response assay; format: functional, organism-based; parameters: dose 2.5 mg/kg
Mus musculus [10] = experiment: Analgetic activity against CF-1 mouse assessed as increase in reaction time at 100 mg/kg, po by heat stimulus induced tail flick response assay; format: functional, organism-based; parameters: dose 100 mg/kg
Rhesus monkey = experiment: Analgetic activity in naloxone challenged monkey assessed as frequency pretreated for 2 day by mouse jumping test; format: functional, organism-based; conditions: Macaca mulatta
Mus musculus [11] = experiment: Analgetic activity against CF-1 mouse assessed as increase in reaction time at 16 mg/kg, po by heat stimulus induced tail flick response assay; format: functional, organism-based; parameters: dose 16 mg/kg
Mus musculus [12] = species on record: Mus musculus; experiment: Analgetic activity in naloxone challenged mouse assessed as frequency pretreated for 2 day by mouse jumping test; format: functional, organism-based
Mus musculus [13] = experiment: Analgetic activity against CF-1 mouse assessed as increase in reaction time at 4 mg/kg, sc by heat stimulus induced tail flick response assay; format: functional, organism-based; parameters: dose 4 mg/kg
Mus musculus [14] = experiment: Analgetic activity against CF-1 mouse assessed as increase in reaction time at 160 mg/kg, sc by heat stimulus induced tail flick response assay; format: functional, organism-based; parameters: dose 160 mg/kg
Mus musculus [15] = experiment: Analgetic activity against CF-1 mouse assessed as increase in reaction time at 30 mg/kg, sc by heat stimulus induced tail flick response assay; format: functional, organism-based; parameters: dose 30 mg/kg
Mus musculus [16] = experiment: Analgetic activity against CF-1 mouse assessed as increase in reaction time at 10 mg/kg, sc by heat stimulus induced tail flick response assay; format: functional, organism-based; parameters: dose 10 mg/kg
Mus musculus [17] = experiment: Analgetic activity against CF-1 mouse assessed as increase in reaction time at 30 mg/kg, po by heat stimulus induced tail flick response assay; format: functional, organism-based; parameters: dose 30 mg/kg
Mus musculus [18] = experiment: Analgetic activity against CF-1 mouse assessed as increase in reaction time at 50 mg/kg, sc by heat stimulus induced tail flick response assay; format: functional, organism-based; parameters: dose 50 mg/kg
Mus musculus [19] = experiment: Analgetic activity against CF-1 mouse assessed as increase in reaction time at 80 mg/kg, po by heat stimulus induced tail flick response assay; format: functional, organism-based; parameters: dose 80 mg/kg
Mus musculus [20] = experiment: Analgetic activity against CF-1 mouse assessed as increase in reaction time at 1.2 mg/kg, po by heat stimulus induced tail flick response assay; format: functional, organism-based; parameters: dose 1.2 mg/kg
Mus musculus [21] = experiment: Analgetic activity against CF-1 mouse assessed as increase in reaction time at 5 mg/kg, sc by heat stimulus induced tail flick response assay; format: functional, organism-based; parameters: dose 5 mg/kg
Mus musculus [22] = experiment: Analgetic activity against CF-1 mouse assessed as increase in reaction time at 1.2 mg/kg, sc by heat stimulus induced tail flick response assay; format: functional, organism-based; parameters: dose 1.2 mg/kg
Mus musculus [23] = species on record: Mus musculus; experiment: Analgetic activity in nalorphine challenged mouse assessed as frequency pretreated for 2 day by mouse jumping test; format: functional, organism-based
Mus musculus [24] = experiment: Analgetic activity against CF-1 mouse assessed as increase in reaction time at 1.5 mg/kg, sc by heat stimulus induced tail flick response assay; format: functional, organism-based; parameters: dose 1.5 mg/kg
Mus musculus [25] = experiment: Analgetic activity against CF-1 mouse assessed as increase in reaction time at 80 mg/kg, sc by heat stimulus induced tail flick response assay; format: functional, organism-based; parameters: dose 80 mg/kg
Mus musculus [26] = experiment: Analgetic activity against CF-1 mouse assessed as increase in reaction time at 40 mg/kg, sc by heat stimulus induced tail flick response assay; format: functional, organism-based; parameters: dose 40 mg/kg
Mus musculus [27] = experiment: Analgetic activity against CF-1 mouse assessed as increase in reaction time at 60 mg/kg, sc by heat stimulus induced tail flick response assay; format: functional, organism-based; parameters: dose 60 mg/kg
Mus musculus [28] = experiment: Analgetic activity against CF-1 mouse assessed as increase in reaction time at 320 mg/kg, po by heat stimulus induced tail flick response assay; format: functional, organism-based; parameters: dose 320 mg/kg
Mus musculus [29] = experiment: Analgetic activity against CF-1 mouse assessed as increase in reaction time at 2 mg/kg, sc by heat stimulus induced tail flick response assay; format: functional, organism-based; parameters: dose 2 mg/kg

Compound: CC1C2Cc3ccc(OC(=O)c4ccco4)cc3C1(c1ccccc1)CCN2C(=O)c1ccco1 (centres undefined)
- Activity (Mus musculus [1]): inactive

Compound: CC(O)C(=O)O.CC1C2Cc3ccc(O)cc3C1(c1ccccc1)CCN2CCCCc1ccccc1 (centres undefined)
- Activity (Mus musculus [2]): inactive
- ED50 (Mus musculus [3]): > 100 mg/kg

Compound: O=C(Oc1ccc2c(c1)C1(c3ccccc3)CCN(C(=O)C3CC3)C(C2)C1)C1CC1 (racemic)
- Activity (Mus musculus [1]): inactive
- ED50 (Mus musculus [4]): > 100 mg/kg

Compound: Oc1ccc2c(c1)C1(c3ccccc3)CCN(CC3CC3)C(C2)C1 (centres undefined)
- Activity (Mus musculus [5]): Toxic

Compound: CCN1CCC2(c3ccccc3)c3cc(O)ccc3CC1C2C (centres undefined)
- Activity (Mus musculus [6]): Active

Compound: CCCC(=O)Oc1ccc2c(c1)C1(c3ccccc3)CCN(C)C(C2)C1C (centres undefined)
- Activity (Mus musculus [7]): Active
- Activity (Mus musculus [8]): Active

Compound: CC1C2Cc3ccc(OC(=O)CCl)cc3C1(c1ccccc1)CCN2C (centres undefined)
- Activity (Mus musculus [9]): Active

Compound: CC(=O)N1CCC2(c3ccccc3)CC1Cc1ccc(O)cc12 (racemic)
- Activity (Mus musculus [10]): inactive
- ED50 (Mus musculus [4]): > 100 mg/kg

Compound: Oc1ccc2c(c1)C1(c3ccccc3)CCN(CC3CC3)C(C2)C1 (racemic)
- Activity (Rhesus monkey): inactive

Compound: CN1CC[C@]23c4c5ccc(O)c4O[C@H]2[C@@H](O)C=C[C@H]3[C@H]1C5 [MORPHINE]
- Activity (Mus musculus [11]): Active
- Activity (Mus musculus [12]): Active
- Activity (Mus musculus [13]): Active
- ED50 (Mus musculus [3]): 8.9 mg/kg

Compound: CC(=O)Oc1ccc2c(c1)C1(c3ccc(Cl)cc3)CCN(C#N)C(C2)C1 (racemic)
- Activity (Mus musculus [10]): inactive
- ED50 (Mus musculus [4]): > 100 mg/kg

Compound: CCCCCN1CCC2(c3ccccc3)c3cc(O)ccc3CC1C2C (centres undefined)
- Activity (Mus musculus [9]): Active
- Activity (Mus musculus [14]): Active

Compound: CCN1CCC2(c3ccccc3)CC1Cc1ccc(O)cc12 (racemic)
- Activity (Mus musculus [15]): inactive
- ED50 (Mus musculus [4]): > 30 mg/kg

Compound: CCC(=O)Oc1ccc2c(c1)C1(c3ccccc3)CCN(C)C(C2)C1C (centres undefined)
- Activity (Mus musculus [9]): Active

Compound: CC1C2Cc3ccc(O)cc3C1(c1ccc(Cl)cc1)CCN2C (racemic)
- Activity (Mus musculus [8]): Active
- Activity (Mus musculus [16]): Active

Compound: CC(=O)Oc1ccc2c(c1)C1(c3ccccc3)CCN(C(C)=O)C(C2)C1 (racemic)
- Activity (Mus musculus [17]): inactive
- ED50 (Mus musculus [4]): > 100 mg/kg

Compound: CN(C)C(=O)CCN1CCC2(c3ccccc3)CC1Cc1ccc(O)cc12 (racemic)
- Activity (Mus musculus [18]): inactive

Compound: CC1C2Cc3ccc(O)cc3C1(c1ccccc1)CCN2CCc1ccccc1 (centres undefined)
- Activity (Mus musculus [19]): Active
- Activity (Mus musculus [16]): Active

Compound: COc1ccc2c(c1)C1(c3ccccc3)CCN(C)C(C2)C1 (racemic)
- Activity (Mus musculus [2]): inactive

Compound: CC1C2Cc3ccc(O)cc3C1(c1ccc(F)cc1)CCN2C (racemic)
- Activity (Mus musculus [9]): Active
- Activity (Mus musculus [7]): Active

Compound: CC1C2Cc3ccc(OC(=O)c4ccc(Br)cc4)cc3C1(c1ccccc1)CCN2C (centres undefined)
- Activity (Mus musculus [20]): Active
- Activity (Mus musculus [21]): Active

Compound: Oc1ccc2c(c1)C1(c3ccccc3)CCN(CC3CCC3)C(C2)C1 (racemic)
- Activity (Rhesus monkey): inactive

Compound: CC1C2Cc3ccc(OC(=O)c4cccc(Cl)c4)cc3C1(c1ccccc1)CCN2C (centres undefined)
- Activity (Mus musculus [22]): Active

Compound: CC1C2Cc3ccc(OC(=O)c4ccc(Cl)cc4)cc3C1(c1ccccc1)CCN2C (centres undefined)
- Activity (Mus musculus [22]): Active

Compound: CC1C2Cc3ccc(OC(=O)c4cccc([N+](=O)[O-])c4)cc3C1(c1ccccc1)CCN2C (centres undefined)
- Activity (Mus musculus [22]): Active
- Activity (Mus musculus [23]): Active

Compound: CC(=O)Oc1ccc2c(c1)C1(c3ccccc3)CCN(C)C(C2)C1C (centres undefined)
- Activity (Mus musculus [7]): Active
- Activity (Mus musculus [13]): Active

Compound: CC1C2Cc3ccc(OC(=O)C4CCC4)cc3C1(c1ccccc1)CCN2C (centres undefined)
- Activity (Mus musculus [9]): Active
- Activity (Mus musculus [8]): Active

Compound: CCCCC(=O)Oc1ccc2c(c1)C1(c3ccccc3)CCN(C)C(C2)C1C (centres undefined)
- Activity (Mus musculus [7]): Active
- Activity (Mus musculus [24]): Active

Compound: COc1ccc2c(c1)C1(c3ccccc3)CCN(C)C(C2)C1C (centres undefined)
- Activity (Mus musculus [25]): Active
- Activity (Mus musculus [26]): Active
- Activity (Mus musculus [8]): Active

Compound: CC(=O)Oc1ccc2c(c1)C1(c3ccc(Cl)cc3)CCN(C)C(C2)C1 (racemic)
- Activity (Mus musculus [2]): Active
- ED50 (Mus musculus [4]): 20 mg/kg

Compound: CN1CCC2(c3ccccc3)CC1Cc1ccc(O)cc12 (stereo in doubt; 43)
- Activity (Mus musculus [27]): inactive

Compound: COc1ccc2c(c1)C1(c3ccccc3)CCN(C)C(C2)C1 (centres undefined)
- Activity (Mus musculus [28]): inactive
- Activity (Mus musculus [15]): inactive

Compound: COCOc1ccc2c(c1)C1(c3ccccc3)CCN(C)C(C2)C1C (centres undefined)
- Activity (Mus musculus [8]): Active
- Activity (Mus musculus [21]): Active

Compound: CC1C2Cc3ccc(O)cc3C1(c1ccccc1)CCN2CCCC(=O)c1ccc(F)cc1.Cl.O (centres undefined)
- Activity (Mus musculus [18]): inactive
- Activity (Mus musculus [12]): inactive
- ED50 (Mus musculus [4]): > 100 mg/kg

Compound: C[C@@H]1C2Cc3ccc(O)cc3C1(c1ccccc1)CCN2C (some centres undefined)
- Activity (Rhesus monkey): Active
- Activity (Mus musculus [29]): Active

Compound: CC1C2Cc3ccc(O)cc3C1(c1ccccc1)CCN2CCc1ccc(N)cc1 (centres undefined)
- Activity (Mus musculus [22]): Active
- Activity (Mus musculus [7]): Active
